Read-outs that look alike come from different tables or passages of the source.
Key:
THP-1 cells = test: Measurement of IL-1β production, hTRF protocol (second alternative procedure), THP-1 cells; assay type: cell-based, human; details: read-out: NLRP3 hILIB EC50
Summary of the method: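 Compounds, dilution series starting at a final 10 μM, were incubated 2 hours at 37° C with PMA-differentiated THP-1 cells (50 ng/ml overnight; 50,000 cells/well, 2% FBS RPMI). Released IL-1β quantified in supernatant by hTRF kit with 1:40 antibody dilution, 4° C overnight, 665/615 nm ratio.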

TLR7 = target: T1, TLR7 (Homo sapiens, UniProt Q9NYK1); test: In vitro human TLR7 binding reporter assay (HEK-Blue, NF-kB/AP1-inducible SEAP); assay type: cell-based; details: read-out: TLR7 Agonist EC50
T1 construct: human HEK-Blue cells co-expressing a TLR7 or TLR8 gene
T1 sequence (Q9NYK1 27-1049): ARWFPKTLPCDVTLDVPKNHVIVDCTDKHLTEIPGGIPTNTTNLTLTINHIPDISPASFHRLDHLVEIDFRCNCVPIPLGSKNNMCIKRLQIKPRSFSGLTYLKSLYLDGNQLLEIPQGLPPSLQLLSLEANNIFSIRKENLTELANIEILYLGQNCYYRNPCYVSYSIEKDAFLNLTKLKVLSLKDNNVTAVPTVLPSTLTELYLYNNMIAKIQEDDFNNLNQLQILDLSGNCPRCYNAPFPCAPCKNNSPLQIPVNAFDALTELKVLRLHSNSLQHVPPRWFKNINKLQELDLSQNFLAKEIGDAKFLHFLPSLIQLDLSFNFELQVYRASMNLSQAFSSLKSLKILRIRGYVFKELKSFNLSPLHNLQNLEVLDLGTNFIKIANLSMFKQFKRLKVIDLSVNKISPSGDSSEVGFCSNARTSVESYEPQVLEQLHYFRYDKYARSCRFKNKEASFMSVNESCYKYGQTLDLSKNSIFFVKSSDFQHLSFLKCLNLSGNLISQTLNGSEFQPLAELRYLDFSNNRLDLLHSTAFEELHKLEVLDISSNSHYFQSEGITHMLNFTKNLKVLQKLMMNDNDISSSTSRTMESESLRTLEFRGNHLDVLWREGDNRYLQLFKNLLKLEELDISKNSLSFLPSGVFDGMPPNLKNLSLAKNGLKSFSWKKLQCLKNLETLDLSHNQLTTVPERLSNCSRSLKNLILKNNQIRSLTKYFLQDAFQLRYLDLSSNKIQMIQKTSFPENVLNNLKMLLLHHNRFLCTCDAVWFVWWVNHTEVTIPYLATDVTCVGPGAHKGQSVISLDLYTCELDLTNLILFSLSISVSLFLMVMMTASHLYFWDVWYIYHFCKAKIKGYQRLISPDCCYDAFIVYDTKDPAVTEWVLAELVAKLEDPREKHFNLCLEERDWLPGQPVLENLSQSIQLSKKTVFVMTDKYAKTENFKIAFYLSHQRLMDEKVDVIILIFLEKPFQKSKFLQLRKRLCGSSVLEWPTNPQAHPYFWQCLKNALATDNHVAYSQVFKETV
Summary of the method: (§1)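 EC50s come from NF-kB/AP1-driven SEAP secretion in HEK-Blue cells expressing TLR7 or TLR8, measured with Quanti-Blue after an 18 h compound incubation. Maximal response is defined by a 50 μM reference standard.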

TLR8 = target: T2, TLR8 (Homo sapiens, UniProt Q9NR97); test: In vitro human TLR8 binding reporter assay (HEK-Blue, NF-kB/AP1-inducible SEAP); assay type: cell-based; details: read-out: TLR8 Agonist EC50
T2 construct: human HEK-Blue cells co-expressing a TLR7 or TLR8 gene
T2 sequence (Q9NR97 27-1041): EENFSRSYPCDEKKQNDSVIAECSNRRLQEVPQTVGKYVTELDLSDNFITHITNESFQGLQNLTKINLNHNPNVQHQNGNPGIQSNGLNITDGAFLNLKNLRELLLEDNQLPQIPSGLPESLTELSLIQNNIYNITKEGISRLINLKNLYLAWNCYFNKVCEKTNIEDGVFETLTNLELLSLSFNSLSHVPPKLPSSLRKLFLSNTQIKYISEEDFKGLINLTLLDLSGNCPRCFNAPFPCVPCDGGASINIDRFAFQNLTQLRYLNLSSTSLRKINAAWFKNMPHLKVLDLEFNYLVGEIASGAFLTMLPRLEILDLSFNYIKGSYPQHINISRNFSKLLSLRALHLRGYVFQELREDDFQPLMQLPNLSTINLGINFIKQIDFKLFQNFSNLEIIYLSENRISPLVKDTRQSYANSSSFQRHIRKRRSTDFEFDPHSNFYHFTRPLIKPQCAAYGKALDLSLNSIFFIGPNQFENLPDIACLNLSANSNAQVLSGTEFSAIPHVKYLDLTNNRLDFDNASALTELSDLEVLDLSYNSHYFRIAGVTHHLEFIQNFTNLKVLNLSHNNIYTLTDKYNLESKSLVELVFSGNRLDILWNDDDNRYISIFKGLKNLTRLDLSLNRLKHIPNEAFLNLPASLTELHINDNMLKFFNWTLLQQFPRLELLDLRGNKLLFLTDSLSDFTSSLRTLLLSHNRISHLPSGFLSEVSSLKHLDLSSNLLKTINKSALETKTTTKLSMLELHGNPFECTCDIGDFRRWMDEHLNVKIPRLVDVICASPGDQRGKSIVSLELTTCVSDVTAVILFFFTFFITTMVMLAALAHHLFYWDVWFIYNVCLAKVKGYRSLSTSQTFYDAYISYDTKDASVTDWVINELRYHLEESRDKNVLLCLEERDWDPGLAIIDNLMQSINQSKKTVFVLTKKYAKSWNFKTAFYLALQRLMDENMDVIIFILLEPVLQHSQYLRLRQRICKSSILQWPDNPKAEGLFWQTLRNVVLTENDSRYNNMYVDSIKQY
Summary of the method: as §1

[1] = Homo sapiens, THP-1, IL-1β production, human
[2] = Homo sapiens, THP-1, IL-1β production, human cells

SMILES	EC50 (THP-1 cells; [1]) [µM]	EC50 (TLR7; activity range class) [µM]	EC50 (TLR8; activity range class) [µM]	EC50 (THP-1 cells; IL-1β production, human) [µM]	EC50 (THP-1 cells; [2]) [µM]	EC50 (TLR7; activity range) [µM]	EC50 (TLR8; activity range) [µM]
Nc1nc2cc(-c3ccn[nH]3)ccc2c2sc(CCCOCc3ccccc3)nc12 [Example 141, 2-[3-(benzyloxy)propyl]-7-(1H-pyrazol-3-yl)-[1,3]thiazolo[4,5-c]quinolin-4-amine]	6.28	> 100	≤ 1				
Nc1nc2cc(-n3cccn3)ccc2c2nn(CC(F)F)cc12 [Example 390]	0.35	> 100	> 100				
COCCCn1ncc2c(N)nc3cc(-c4cc[nH]n4)ccc3c21 [Example 228]	0.3	> 100	> 100				
Nc1nc2cc(-c3cc[nH]n3)ccc2c2cn(CCN3Cc4ccccc4C3=O)nc12 [Example 102, 2-{2-[4-amino-7-(1H-pyrazol-3-yl)-2H-pyrazolo[3,4-c]quinolin-2-yl]ethyl}-2,3-dihydro-1H-isoindol-1-one]	0.41	20 to 100	20 to 100				
Nc1nc2cc(-c3cc[nH]n3)ccc2c2c1cnn2CC1CCCO1 (stereo not drawn) [Example 230]	0.87	> 100	> 100				
Nc1nc2cc(-c3cc[nH]n3)ccc2c2cn(CCNC(=O)c3ccccc3)nc12 [Example 36]	1.38	20 to 100	> 100				
Nc1nc2cc(-c3cc[nH]n3)ccc2c2cn(CCNC(=O)c3csc(-c4ccncc4)n3)nc12 [Example 86]	2.77	> 100	> 100				
NC(=O)Cn1cc2c(n1)c(N)nc1cc(-c3ccn[nH]3)ccc12 [Example 541]					0.65	> 100	> 100
Nc1nc2cc(-c3cc[nH]n3)ccc2c2cn(CCNCc3ccccn3)nc12 [Example 112]	2.5	> 100	> 100				
Nc1nc2cc(-c3cc[nH]n3)ccc2c2nn(C[C@@H]3CC(F)(F)CN3)cc12 [Example 363]	1.84	> 100	> 100				
CC(CCO)n1cc2c(n1)c(N)nc1cc(-c3ccn[nH]3)ccc12 (stereo not drawn) [Example 454]					0.37	> 100	> 100
CC(C)(C)OC(=O)NCCn1cc2c(n1)c(N)nc1cc(-c3cccs3)ccc12 [Example 127, tert-butyl N-{2-[4-amino-7-(thiophen-2-yl)-2H-pyrazolo[3,4-c]quinolin-2-yl]ethyl}carbamate]	1.05	> 100	> 100				
Nc1nc2cc(-c3cc[nH]n3)ccc2c2[nH]c(CN3C[C@H]4CC[C@@H](C3)O4)cc12 [Example 473]					0.49	> 100	> 100
Nc1nc2cc(-c3cc[nH]n3)ccc2c2cn(CCNCc3ccccc3)nc12 [Example 108]	0.91	20 to 100	20 to 100				
CC(C)S(=O)(=O)NCCc1cc2c(N)nc3cc(-c4cc[nH]n4)ccc3c2[nH]1 [Example 483]					1.1	> 100	> 100
Cc1csc(C(=O)NCCn2cc3c(n2)c(N)nc2cc(-c4cc[nH]n4)ccc23)n1 [Example 96]	0.31	> 100	20 to 100				
COCCn1nc2c(N)nc3cc(-c4ccn[nH]4)ccc3c2n1 [Example 162]	1.22	> 100	> 100				
C[C@@H](CO)Cn1cc2c(N)nc3cc(-c4cc[nH]n4)ccc3c2n1 [Example 332]	0.21	> 100	> 100				

The next lines start with the values.

EC50 (THP-1 cells; [1]) [µM]	EC50 (TLR7; activity range class) [µM]	EC50 (TLR8; activity range class) [µM]	EC50 (THP-1 cells; IL-1β production, human) [µM]	EC50 (THP-1 cells; [2]) [µM]	EC50 (TLR7; activity range) [µM]	EC50 (TLR8; activity range) [µM]	SMILES
1.52	20 to 100	20 to 100					Cc1cc(C)n(CCn2cc3c(n2)c(N)nc2cc(-n4cccn4)ccc23)n1 [Example 12]
	> 100	> 100	3.09				Nc1nc2cc(-c3cc[nH]n3)ccc2c2nn(C3CCCCC3O)cc12 (single isomer, unassigned) [Example 318]
0.63	> 100	> 100					Nc1nc2cc(-c3cc[nH]n3)ccc2c2cn(CCNC(=O)C3CCCCO3)nc12 (stereo not drawn) [Example 93]
16.8	> 100	> 100					Nc1nc2cc(-c3cc[nH]n3)ccc2c2cn(CCCn3ccccc3=O)nc12 [Example 4, 1-{3-[4-amino-7-(1H-pyrazol-3-yl)-2H-pyrazolo[3,4-c]quinolin-2-yl]propyl}-1,2-dihydropyridin-2-one]
				15.3	> 100	> 100	CCN(Cc1[nH]c2c(c(N)nc3cc(-c4cc[nH]n4)ccc32)c1C)C(C)=O [Example 470]
0.33	> 100	> 100					Cc1nc(C(=O)NCCn2cc3c(n2)c(N)nc2cc(-c4cc[nH]n4)ccc23)co1 [Example 76]
1.7	> 100	> 100					COCC(=O)NC(C)Cn1cc2c(N)nc3cc(-c4ccn[nH]4)ccc3c2n1 (stereo not drawn) [Example 296]
0.13	20 to 100	1 to 20					Nc1nc2cc(-c3cc[nH]n3)ccc2c2cn(CCN3Cc4cc(Cl)ccc4C3=O)nc12 [Example 104, 2-{2-[4-amino-7-(1H-pyrazol-3-yl)-2H-pyrazolo[3,4-c]quinolin-2-yl]ethyl}-5-chloro-2,3-dihydro-1H-isoindol-1-one]
				10.9	> 100	> 100	CC(C)S(=O)(=O)NCCCn1cc2c(N)nc3cc(-c4ccn[nH]4)ccc3c2n1 [Example 588]
				20.1	> 100	> 100	CC(C(=O)N1CC[C@H](C#N)C1)n1cc2c(N)nc3cc(-c4ccn[nH]4)ccc3c2n1 (stereo partly drawn) [Example 580]
0.64	> 100	> 100					Nc1nc2cc(-n3cccn3)ccc2c2nn(CCO)cc12 [Example 249, 2-(4-amino-7-(1H-pyrazol-1-yl)-2H-pyrazolo[4,3-c]quinolin-2-yl)ethan-1-ol]
				3.88	> 100	> 100	CC(CC(=O)N(C)C)n1cc2c(N)nc3cc(-c4cc[nH]n4)ccc3c2n1 (stereo not drawn) [Example 617]
				4.58	> 100	> 100	Nc1nc2cc(-n3cccn3)ccc2c2nn(CC3COCCN3)cc12 (stereo not drawn) [Example 433]
2.9	> 100	> 100					CCNC(=O)Cn1cc2c(n1)c(N)nc1cc(-c3cc[nH]n3)ccc12 [Example 24]

Source: US12037344B2, “NLRP3 modulators” (INNATE TUMOR IMMUNITY, INC., priority 2018, dated 2024)
